Data: the CheMixHub drug solubility set

Assay: xn = mol fraction of the nth substance listed, in the solute-free solvent

OCCN(CCO)c1nc(N2CCCCC2)c2nc(N(CCO)CCO)nc(N3CCCCC3)c2n1 + CC(C)O + O
solubility (g/100 g solution)
Details	293.15 K	298.15 K	303.15 K	308.15 K	313.15 K	318.15 K	323.15 K	328.15 K
x2 = 0.3	4.66	6.62	8.49	11.6	14.9	19.9	27.3	32.8
x2 = 0.4	7.42	9.61	12.4	15.3	20.2	25.6	32.3	39.9
x2 = 0.5	8.69	11.8	14.9	18.1	21.7	27.7	33.4	39.5
x2 = 0.6	9.25	11.6	14.6	18	20.8	26.6	31.7	37.5
x2 = 0.7	8.37	9.97	12.7	15.8	19.1	23.7	28.6	33.6
x2 = 0.8	6.58	8.26	10.4	13.2	15.7	20	24	29
x2 = 0.9	4.8	6.08	7.64	9.93	11.6	15.1	18.8	23.2

Nc1nccnc1Cl + OCCO + O
solubility (g/100 g solution)
Details	278.15 K	283.15 K	288.15 K	293.15 K	298.15 K	303.15 K	308.15 K	313.15 K	318.15 K	323.15 K
x2 = 0.03125	0.0244	0.0327	0.0431	0.0542	0.0663	0.0791	0.0925	0.108	0.123	0.139
x2 = 0.06767	0.0337	0.045	0.0589	0.0739	0.0903	0.108	0.126	0.147	0.167	0.189
x2 = 0.1107	0.0487	0.0645	0.0838	0.105	0.128	0.153	0.178	0.208	0.236	0.267
x2 = 0.1622	0.0695	0.0914	0.118	0.147	0.179	0.213	0.25	0.29	0.33	0.372
x2 = 0.225	0.09	0.119	0.153	0.192	0.235	0.28	0.328	0.382	0.435	0.491
x2 = 0.3034	0.113	0.148	0.19	0.239	0.291	0.347	0.408	0.474	0.541	0.61
x2 = 0.4038	0.13	0.17	0.218	0.273	0.334	0.399	0.469	0.546	0.625	0.705
x2 = 0.5373	0.139	0.182	0.232	0.292	0.357	0.427	0.505	0.589	0.676	0.764
x2 = 0.7232	0.142	0.182	0.235	0.297	0.364	0.438	0.519	0.607	0.699	0.792

Nc1cccc(S(=O)(=O)c2cccc(N)c2)c1 + CO + O
solubility (g/100 g solution)
Details	283.15 K	288.15 K	293.15 K	298.15 K	303.15 K	308.15 K	313.15 K	318.15 K	323.15 K	328.15 K
x2 = 0.05881	0.0853	0.113	0.149	0.202	0.26	0.333	0.429	0.552	0.675	0.867
x2 = 0.1233	0.182	0.244	0.31	0.4	0.526	0.654	0.83	1.04	1.28	1.59
x2 = 0.1942	0.315	0.413	0.533	0.675	0.849	1.08	1.34	1.67	2.05	2.48
x2 = 0.2727	0.512	0.66	0.84	1.04	1.32	1.63	2	2.41	2.93	3.56
x2 = 0.3599	0.734	0.92	1.16	1.44	1.77	2.18	2.64	3.19	3.81	4.63
x2 = 0.4576	0.977	1.22	1.53	1.89	2.32	2.81	3.41	4.06	4.85	5.78
x2 = 0.5675	1.28	1.57	1.95	2.42	2.93	3.58	4.23	5.08	5.95	7.08
x2 = 0.6923	1.59	1.95	2.37	2.95	3.56	4.28	5.14	6.1	7.13	8.38
x2 = 0.835	1.93	2.32	2.83	3.42	4.15	4.97	5.91	6.97	8.2	9.54

CCC(C)n1ncn(-c2ccc(N3CCN(c4ccc(OCC5COC(Cn6cncn6)(c6ccc(Cl)cc6Cl)O5)cc4)CC3)cc2)c1=O (centres undefined) + ClC(Cl)Cl + CCCCO
solubility (g/100 g solution)
Details	x2 = 0.06524	x2 = 0.1357	x2 = 0.2121	x2 = 0.2952	x2 = 0.3858	x2 = 0.4851	x2 = 0.5945	x2 = 0.7153	x2 = 0.8497
288.15 K	0.0548	0.12	0.336	0.987	3.22	7.01	12	17.9	23.9
293.15 K	0.0651	0.142	0.387	1.18	3.56	7.85	13.2	18.9	24.8
298.15 K	0.0777	0.171	0.445	1.39	3.92	8.74	14.3	20.1	25.6
303.15 K	0.0924	0.202	0.509	1.65	4.3	9.68	15.4	21.3	26.5
308.15 K	0.109	0.237	0.583	1.93	4.71	10.7	16.6	22.4	27.4

CN1CCN(C2=Nc3cc(Cl)ccc3Nc3ccccc32)CC1 + ClCCCl + Cc1ccccc1
solubility (g/100 g solution)
Details	x2 = 0.09454	x2 = 0.1907	x2 = 0.2875	x2 = 0.3851	x2 = 0.4844	x2 = 0.5848	x2 = 0.6866	x2 = 0.79	x2 = 0.8945
293.15 K	2.42	2.81	3.04	3.48	3.87	4.26	4.74	5.15	5.47
298.15 K	2.8	3.04	3.49	3.86	4.38	4.96	5.44	5.92	6.3
303.15 K	3.12	3.63	3.88	4.47	5.03	5.87	6.44	6.95	7.31
308.15 K	3.94	4.47	4.94	5.58	6.12	6.82	7.42	8.2	8.68
313.15 K	4.7	5.37	5.95	6.67	7.33	8.06	8.85	9.38	9.62
318.15 K	5.75	6.09	6.93	7.46	8.32	9.3	9.75	10.8	11.5
323.15 K	7.24	7.72	8.87	9.82	10.7	11.6	12.3	13.2	13.6

CC(N)C(=O)O (centres undefined) + O + CC(C)O
solubility (g/100 g solution)
Details	x2 = 0.1	x2 = 0.2	x2 = 0.3	x2 = 0.4	x2 = 0.5	x2 = 0.6	x2 = 0.7	x2 = 0.8	x2 = 0.9
283.15 K	0.0186	0.0381	0.0478	0.104	0.185	0.376	0.772	1.58	3.5
293.15 K	0.0303	0.046	0.0604	0.124	0.223	0.459	1.01	2.08	4.48
303.15 K	0.0379	0.0557	0.0726	0.143	0.267	0.552	1.25	2.62	5.51
313.15 K	0.0427	0.0643	0.0784	0.158	0.316	0.704	1.55	3.3	6.91
323.15 K	0.0448	0.0801	0.113	0.167	0.372	0.842	1.85	4.04	8.23
